According to patent US12065648B2, “Methods and compositions for inhibiting detoxification response” (priority 2015, dated 2024):

Columns and labels:
[1] = system: haf-7 transcriptional GFP fusion gene; test: Transcriptional GFP fusion gene induction: haf-7; type: in vivo, C. elegans; settings: n = 20
Experimental: (§1) G418 (GoldBio) or hygromycin (GoldBio) was diluted in M9 to the desired concentration and added onto preseeded OP50 E. coli bacteria containing NGM plates. The plates were dried uncovered in the hood for at least 1 hour before seeding the worms. For the drug experiments, synchronized L1-stage animals were dropped onto the drug containing plates and scored later. For drug resistance assays synchronized L1 larval stage animals of the appropriate genotype were fed with either control RNAi or with RNAi clones targeting bile acid biosynthetic pathways until they reach day two of adulthood. Subsequently, the RNAi-treated animals were egg-prepped to obtain synchronized L1 larvae. ˜100 L1 larvae were added to the plates containing G418. 100 nM of Δ^4-Dafachronic Acid or (25S)-Δ^7-Dafachronic Acid from Cayman Chemical were used.
(§2) Nematodes were mounted onto agar pads and images were taken using a Zeiss AXIO Imager Z1 microscope fitted with a Zeiss AxioCam HRm camera and Axiovision 4.6 (Zeiss) software. Fluorescent images were converted to 16-bit images, thresholded and quantified using ImageJ. Student's t test was used determine statistical significance. […]

[2] = system: ugt-61 transcriptional GFP fusion gene; test: Transcriptional GFP fusion gene induction: ugt-61; type: in vivo, C. elegans; settings: n = 20
Experimental: as §1, §2

[3] = system: pgp-3 transcriptional GFP fusion gene; test: Transcriptional GFP fusion gene induction: pgp-3; type: in vivo, C. elegans; settings: n = 20
Experimental: as §1, §2

[4] = system: mrp-2 transcriptional GFP fusion gene; test: Transcriptional GFP fusion gene induction: mrp-2; type: in vivo, C. elegans; settings: n = 20
Experimental: as §1, §2

[5] = system: abch-1 transcriptional GFP fusion gene; test: Transcriptional GFP fusion gene induction: abch-1; type: in vivo, C. elegans; settings: n = 20
Experimental: as §1, §2

[6] = system: pmp-4 transcriptional GFP fusion gene; test: Transcriptional GFP fusion gene induction: pmp-4; type: in vivo, C. elegans; settings: n = 20
[7] = system: ugt-58 transcriptional GFP fusion gene; test: Transcriptional GFP fusion gene induction: ugt-58; type: in vivo, C. elegans; settings: n = 20
Experimental: as §1, §2

[8] = system: dhs-9 transcriptional GFP fusion gene; test: Transcriptional GFP fusion gene induction: dhs-9; type: in vivo, C. elegans; settings: n = 20
Experimental: as §1, §2

[9] = system: cyp-13a7 transcriptional GFP fusion gene; type: in vivo, C. elegans; settings: n = 20
Experimental: as §1
(§3) Nematodes were mounted onto agar pads and images were taken using a Zeiss AXIO Imager Z1 microscope fitted with a Zeiss AxioCam HRm camera and Axiovision 4.6 (Zeiss) software. Fluorescent images were converted to 16-bit images, thresholded and quantified using ImageJ. Student's t test was used determine statistical significance.
(§4) Inactivation of C. elegans translation components by feeding the animals E. coli expressing specific dsRNAs targeting translation factor mRNAs induces the expression of xenobiotic detoxification genes, bacterial pathogen response genes, and aversion behavior2-4 (FIG. 1A-C; Table 1, 2 and 3). Toxins, such as the eukaryotic translation inhibitors G418 produced by the bacteria Micromonospora rhodorangea5 or hygromycin, produced by the soil bacteria Streptomyces hygroscopicus6 also induce these responses.
(§5) Detoxification responses in animals include, cytochrome P450's (CYPs), UDP-glucuronosyltransferases (UGTs), glutathione S-transferases (GSTs), and p-glycoprotein transporters (PGPs) (FIGS. 1A & 1C; FIG. 6 A-B; Table 1, 2 and 3). We chose a pgp-5::gfp fusion gene for assays of xenobiotic detoxification induction in response to G418 or hygromycin or ribosomal assaults via RNAi (FIGS. 1A & C; FIG. 6 A-B; Table 1, 2 and 3) because of the robust response of this reporter gene and validation of this gene induction from microarray gene expression analysis in response to translational inhibition by toxins or RNAi4.

[10] = system: cyp-14A3 transcriptional GFP fusion gene; type: in vivo, C. elegans; settings: n = 20
Experimental: as §1, §3, §4, §5

[11] = system: cyp-25a2 transcriptional GFP fusion gene; type: in vivo, C. elegans; settings: n = 20
Experimental: as §1, §3, §4, §5

[12] = system: cyp-31a3 transcriptional GFP fusion gene; type: in vivo, C. elegans; settings: n = 20
Experimental: as §1, §3, §4, §5

[13] = system: cyp-34A9 transcriptional GFP fusion gene; type: in vivo, C. elegans; settings: n = 20
Experimental: as §1, §3, §4, §5

[14] = system: cyp-35B1 transcriptional GFP fusion gene; type: in vivo, C. elegans; settings: n = 20
Experimental: as §1, §3, §4, §5

[15] = system: cyp-37A1 transcriptional GFP fusion gene; type: in vivo, C. elegans; settings: n = 20
Experimental: as §1, §3, §4, §5

[16] = system: dhs-19 transcriptional GFP fusion gene; test: Transcriptional GFP fusion gene induction: dhs-19; type: in vivo, C. elegans; settings: n = 20
Experimental: as §1, §2

[17] = system: ugt-8 transcriptional GFP fusion gene; test: Transcriptional GFP fusion gene induction: ugt-8; type: in vivo, C. elegans; settings: n = 20
Experimental: as §1, §2

[18] = system: pgp-4 transcriptional GFP fusion gene; test: Transcriptional GFP fusion gene induction: pgp-4; type: in vivo, C. elegans; settings: n = 20
[19] = system: pgp-6 transcriptional GFP fusion gene; test: Transcriptional GFP fusion gene induction: pgp-6; type: in vivo, C. elegans; settings: n = 20
Experimental: as §1, §2

[20] = system: ugt-22 transcriptional GFP fusion gene; test: Transcriptional GFP fusion gene induction: ugt-22; type: in vivo, C. elegans; settings: n = 20
Experimental: as §1, §2

[21] = system: pgp-9 transcriptional GFP fusion gene; test: Transcriptional GFP fusion gene induction: pgp-9; type: in vivo, C. elegans; settings: n = 20
Experimental: as §1, §2

pgp-5::gfp [22] = test: pgp-5::gfp induction in animals without germline translation mutation (toxin, RNAi, bile acids, lipid extracts); type: in vivo, C. elegans; settings: pgp-5 transcriptional GFP fusion gene; n = 20
Experimental: as §1
Nematodes were mounted onto agar pads and images were taken using a Zeiss AXIO Imager Z1 microscope fitted with a Zeiss AxioCam HRm camera and Axiovision 4.6 (Zeiss) software. Fluorescent images were converted to 16-bit images, thresholded and quantified using ImageJ. […]
RNAi bacteria expressing the dsRNA corresponding to each worm gene were grown in LB media with 25 μg/ml carbenicillin overnight and seeded onto RNAi agar plates containing 1 mM IPTG. […] In the primary screen, the plates were screened visually for changes in GFP fluorescence and worm developmental defects. […]

C. elegans [23] = test: Drug resistance assay (G418 or hygromycin) after RNAi; type: in vivo; settings: control RNAi treated wildtype animals; 0.2 mg/ml G418
Experimental: as §1

pgp-5::gfp [24] = test: pgp-5::gfp induction in germline translation-defective eft-3(q145);pgp-5::gfp strain (RNAi, bile acid rescue, microbes); type: in vivo, C. elegans; settings: bile acids at 100 uM
From the text: Secondary screens were similarly done on the eft-3(q145):pgp-5::gfp strain.
To explore the types of lipids that the dhs-28. daf-22 pathway generates to regulate the induction of pgp-5::gfp expression in translation-defective animals, we tested whether defects in CAs-28 or daf-22-mediated lipid/bile acid biosynthesis could be rescued for pgp-5::gfp induction by addition of purified mammalian bile acids (FIG. 9B). […] These bile acids preparations are 95% pure.

C. elegans [25] = test: Effect of microbes on C. elegans growth; type: in vivo; settings: C. elegans grown on the microbe
Experimental: 16S ribosomal sequence was amplified using specific primers and sequenced to identify the microbes. BHI media as well as plates was used for culturing and testing the effect of Enterococcus faecalis and E. faecium on worms. For Saccharomyces boulardi, YPD media was used for growing the yeast and a concentrated culture was added to SK media. For Lactobacillus spp, Lactobacilli broth was used for growing and then a concentrated culture was added to SK media. SK media was used for all the other microbes.
Many of the bacterial strains allowed normal growth of C. elegans, but some caused developmental arrest, perhaps due to toxins or virulence factors that disrupt essential C. elegans processes.

In the case of `CN[C@@H]1[C@@H](O)[C@@H](O[C@@H]2[C@@H](O)[C@H](O[C@H]3O[C@H]([C@@H](C)O)[C@@H](O)[C@H](O)[C@H]3N)[C@@H](N)C[C@H]2N)OC[C@]1(C)O` [G418], the “% Animals with gfp induction” value [1] is reported as 0 (n = 20) %, the “% Animals with gfp induction” value [2] is reported as 0 (n = 20) % and the “% Animals with gfp induction” value [3] is reported as 0 (n = 20) %. The “% Animals with gfp induction” value [4] was 80 (n = 20) %, the “% Animals with gfp induction” value [5] was 0 (n = 20) % and the “% Animals with gfp induction” value [6] was 65 (n = 20) %. For the same compound, the “% Animals with gfp induction” value [7] was 0 (n = 20) %, the “% Animals with gfp induction” value [8] was 0 (n = 20) % and the “% Animals with gfp induction” value [9] was 0 (n = 20) %. For the same compound, the “% Animals with gfp induction” value [10] was 0 (n = 20) %, the “% Animals with gfp induction” value [11] was 0 (n = 20) % and the “% Animals with gfp induction” value [12] was 80 (n = 20) %. For the same compound, the “% Animals with gfp induction” value [13] was 0 (n = 20) %, the “% Animals with gfp induction” value [14] was 0 (n = 20) % and the “% Animals with gfp induction” value [15] was 0 (n = 20) %. The “% Animals with gfp induction” value [16] was 0 (n = 20) %, the “% Animals with gfp induction” value [17] was 0 (n = 20) % and the “% Animals with gfp induction” value [18] was 0 (n = 20) %. For the same compound, the “% Animals with gfp induction” value [19] was 100 (n = 20) %, the “% Animals with gfp induction” value [20] was 0 (n = 20) % and the “% Animals with gfp induction” value [21] was 100 (n = 20) %. The “% Animals with gfp induction” value (pgp-5::gfp [22]) was 100 (n = 20) % and the “animals that grew to adulthood” value (C. elegans [23]) was over 40%.
With `C[C@H](CCC(=O)O)[C@H]1CC[C@H]2[C@@H]3[C@H](O)C[C@@H]4C[C@H](O)CC[C@]4(C)[C@H]3CC[C@]12C` [chenodeoxycholic acid] the “rescue of the defect in pgp-5::gfp induction caused by daf-22 or dhs-28 gene inactivations” value (pgp-5::gfp [24]) was “rescued the defect in induction of pgp-5::gfp”.
`CC(CCC(=O)NCC(=O)O)C1CCC2C3C(O)CC4CC(O)CCC4(C)C3CCC12C` (stereo not drawn) [glycochenodeoxycholic acid] was tested, and the “rescue of the defect in pgp-5::gfp induction caused by daf-22 or dhs-28 gene inactivations” value (pgp-5::gfp [24]) was “rescued the defect in induction of pgp-5::gfp”.
In the case of Lactobacillus plantarum, the “% Animals that reach adulthood” value (C. elegans [25]) is reported as 0% and the “developmental outcome on the microbe (arrest stage, slow growth, normal)” value (C. elegans [25]) is reported as “slow growth”.
